Test results published in patent US20230079100A1, “PROCESS FOR PREPARING SOLID FORMULATIONS COMPRISING A HYDROPHOBIC COMPOUND DISPERSIBLE IN A COLD LIQUID AND RELATIVE SOLID FORMULATIONS” (NUTRILINEA S.R.L., priority 2020, published 2023).

Key:
[1] = Visual evaluation of the degree of wettability of solid formulations poured into water; assay type: physicochemical; conditions: for Visual degree of wettability of the solid formulation: process of the invention, fluid bed, 1.5 g in 100 ml water at room temperature
[2] = Static contact angle of ultrapure water on sample pelleted or deposited as film (Krüss Easy Drop); assay type: physicochemical; conditions: 8 μL milliQ water drop, mean with standard deviation, 0 = complete wettability; for Contact angle on pellet: pelleted sample; for Contact angle on film (°): sample deposited as film
Description: 1.4 Contact angle measurements on hydrophobic substrates treated according to the process of the present invention (see section 1 of the experimental part).
The experimental measurements reported hereinafter relate to the study of the wettability characteristics of powdered samples before and after the process according to the present invention. The determination of the static contact angle of ultrapure water (also referred to as grade 1) was carried out on the surface of the sample pelleted or deposited in the form of film, according to methods known in the state of the art and as reported in [1] Nowak et al. Powder Technology 233 (2013) 52-64, e in [2] Bachmann and McHale, European Journal of Soil Science, 60 (2009) 420-430. The determinations were carried out using a Krüss Easy Drop instrument using drops of 8 μL of milliQ water. The behaviour of the drop in the first seconds from the deposition was analysed by recording 30-second video at 25 fps (frames per second): the contact angle considered is the equilibrium value or the final one at the end of the recording. Each sample was analysed both deposited in the form of film and pelleted and at least 3 independent contact angle determinations were carried out for each sample.
5 different types of powders were analysed; each of them was analysed both in the unmodified form thereof (as such) and after the process according to the present invention. In the case of the PEA (Palmitoylethanolamide) powder, a second batch of sample was analysed, for which only measurements on film were carried out. The results of the determinations are reported in Table IV: the mean contact angle value with standard deviation relative to the measurements on pellet and on film are reported. In case of complete wettability of the sample, an angle of 0° is reported. Overall, a greater correspondence of the wettability data measured on film with the dispersibility data observed experimentally (visual observation) is observed. This observation is in good agreement with the literature; the less representativeness of the measurements on pellets can be linked in some cases to absorption phenomena linked to the porosity of the pellet or to alterations of the surface free energy of the powder during pelletisation due to the applied pressure.

[3] = comparison process (A) dry mixing in a cube (1 kg), charging agent maltodextrin, 50%/50%
[4] = comparison process (A) dry mixing in a cube (1 kg), charging agent maltodextrin, 70%/30%
[5] = comparison process (A) dry mixing in a cube (1 kg), charging agent mannitol, 50%/50%
[6] = comparison process (A) dry mixing in a cube (1 kg), charging agent mannitol, 70%/30%
[7] = comparison process (A) dry mixing in a cube (1 kg), charging agent sugar, active/charging agent 50%/50%
[8] = comparison process (A) dry mixing in a cube (1 kg), charging agent sugar, active/charging agent 70%/30%
[9] = comparison process (B) wet granulations (1.5 kg), charging agent maltodextrin, 50%/50%
[10] = comparison process (B) wet granulations (1.5 kg), charging agent maltodextrin, 70%/30%
[11] = comparison process (B) wet granulations (1.5 kg), charging agent mannitol, 50%/50%
[12] = comparison process (B) wet granulations (1.5 kg), charging agent mannitol, 70%/30%
[13] = comparison process (B) wet granulations (1.5 kg), charging agent sugar, 50%/50%
[14] = comparison process (B) wet granulations (1.5 kg), charging agent sugar, 70%/30%
[15] = comparison process (C) wet granulation in a fluid bed granulator (1.5 kg), atomised water about 300-400 g, charging agent maltodextrin, 50%/50%
[16] = comparison process (C) wet granulation in a fluid bed granulator (1.5 kg), atomised water about 300-400 g, charging agent maltodextrin, 70%/30%
[17] = comparison process (C) wet granulation in a fluid bed granulator (1.5 kg), atomised water about 300-400 g, charging agent sugar, 50%/50%
[18] = comparison process (C) wet granulation in a fluid bed granulator (1.5 kg), atomised water about 300-400 g, charging agent sugar, 70%/30%
[19] = comparison process (C) wet granulation in a fluid bed granulator, atomised water about 300-400 g, charging agent mannitol, 50%/50%
[20] = comparison process (C) wet granulation in a fluid bed granulator, atomised water about 300-400 g, charging agent mannitol, 70%/30%
[21] = comparison process (D.a) granulation in a powder kneader (1 kg), active 90% w/w + liquid polysorbate 80 pure 10% w/w
[22] = comparison process (D.b) mixing in a cube (1 kg), active 90% w/w + powder sucrester 10% w/w
[23] = comparison process (E) wet granulation in a fluid bed granulator, active 90% + aqueous solution of polysorbate 80 at 10% w/w, 10%
[24] = solid substrate 90% w/w (900 g) + liquid polysorbate 80 pure at 100% 10% w/w (100 g)
[25] = solid substrate 93% w/w (930 g) + liquid polysorbate 80 pure at 100% 7% w/w (70 g)
[26] = solid substrate 95% w/w (950 g) + liquid polysorbate 80 pure at 100% 5% w/w (50 g)

| Compound | Visual degree of wettability of the active component [1, 3] | Visual degree of wettability of the active component [1, 4] | Visual degree of wettability of the active component [1, 5] | Visual degree of wettability of the active component [1, 6] | Visual degree of wettability of the active component [1, 7] | Visual degree of wettability of the active component [1, 8] | Visual degree of wettability of the active component [1, 9] | Visual degree of wettability of the active component [1, 10] | Visual degree of wettability of the active component [1, 11] | Visual degree of wettability of the active component [1, 12] | Visual degree of wettability of the active component [1, 13] | Visual degree of wettability of the active component [1, 14] | Visual degree of wettability of the active component [1, 15] | Visual degree of wettability of the active component [1, 16] | Visual degree of wettability of the active component [1, 17] | Visual degree of wettability of the active component [1, 18] | Visual degree of wettability of the active component [1, 19] | Visual degree of wettability of the active component [1, 20] | Visual degree of wettability of the active component [1, 21] | Visual degree of wettability of the active component [1, 22] | other results |
| --- | --- | --- | --- | --- | --- | --- | --- | --- | --- | --- | --- | --- | --- | --- | --- | --- | --- | --- | --- | --- | --- |
| CCCCCCCCCCCCCCCC(=O)NCCO [PEA, Palmitoylethanolamide] | Nil | Nil | Nil | Nil | Nil | Nil | Nil/low | Nil/low | Nil/low | Nil/low | Nil/low | Nil/low | Low/Sufficient | Low | Low/Sufficient | Low | Low/Sufficient | Low | Low/Sufficient | Nil | Visual degree of wettability of the active component [1, 23]: Low/Sufficient; Visual degree of wettability of the solid formulation [1, 24]: Excellent; Visual degree of wettability of the solid formulation [1, 25]: Fair; Visual degree of wettability of the solid formulation [1, 26]: Fair; Contact angle on pellet [2]: 72 ± 4 °; Contact angle on film (°) ([2]; listed as PEA as such): 117 ± 7 °; Contact angle on film (°) ([2]; listed as PEA as such second batch): 114 ± 5 ° |
| alpha-lactalbumin | Nil | Nil | Nil | Nil | Nil | Nil | Nil/low | Nil/low | Nil/low | Nil/low | Nil/low | Nil/low | Low/Sufficient | Low | Low/Sufficient | Low | Low/Sufficient | Low | Low/Sufficient | Nil | Visual degree of wettability of the active component [1, 23]: Low/Sufficient; Visual degree of wettability of the solid formulation [1, 24]: Excellent; Visual degree of wettability of the solid formulation [1, 25]: Fair; Visual degree of wettability of the solid formulation [1, 26]: Fair; Contact angle on pellet [2]: 61 ± 6 °; Contact angle on film (°) [2]: 69 ± 3 ° |
